Reference: patent US7495027B2, “3-aryl-4-hydroxyfuranone compounds and the human and animal health use thereof” (Wyeth, priority 2003, dated 2009)
Values after ≈ are worked out from the molar mass of the structure shown. Read-outs that look alike come from different tables or passages of the source.

Experiments:
[1] = biological target: E. coli Enopyruvyl-UPD-N-acetylglucosamine reductase, Mur B (Escherichia coli, UniProt P08373); assay: biochemical; settings: (E) E. coli enzyme; for IC50: read-out: MurB IC50 (converted)
Method: S. aureus and E. coli Enopyruvyl-UPD-N-acetylglucosamine reductase, Mur B
Preparation of Tris/BME buffer:
Dilute 17.5 uL of aqueous 5 mM BME (2-mercaptoethanol) to 50 mL with 50 mM Tris/HCl (pH 8.0).
(§1) Preparation of Enzyme Solution:
Dilute aqueous MurB stock solution (0.94 mg/mL) with 200 parts 50 mM Tris/2-BME buffer.
Synthesis of Substrate for MurB (MurA Product EP-UDP-GluNAc):
A mixture of 13 mg UDP-N-acetylglucosamine and 5.5 mg phosphoenolpyruvate are dissolved in 10 mL Tris/BME buffer forming 2 mM concentrations of each reagent in solution.
Preparation of Assay Buffer:
The assay buffer is prepared in water from reagents with the following final concentrations: 100 mM Tris/HCl (pH 8.0), 200 μM NADPH, 100 μM MurB substrate, 10 μM 2-mercaptoethanol, and 10 μM KCl.
Experiments are performed by adding 20 μL of a solution of test compound in a mixture of dimethylsulfoxide and water and 30 μL of enzyme solution to a well. After a pre-incubation period of 20 mins. at 23° C., 50 μL of Tris/BME buffer and 100 μL of assay buffer are added. […] Controls are performed using the same procedure and employing 20 μL of a blank dimethylsulfonide and solvent mixture in place of the test compound solution.
Using these values, the IC50 for each test compound is determined by linear regression analysis.

staphylococci = assay: Minimum inhibitory concentration, microdilution broth method, staphylococci; format: cell-based; settings: Mueller-Hinton broth, 18-22 hours at 35° C.; for MIC: Staphylococcus aureus
Method: (§2) Evaluation of the Minimum Inhibitory Concentration of Test Compounds Against A Variety of Bacterial Strains
(§3) In this evaluation the minimal inhibitory concentration (MIC) of test compounds against Gram positive and Gram negative bacteria is performed using the microdilution broth method as recommended by the National Committee for Clinical Laboratory Standards (Approved Standards M7-A5 2000). Mueller-Hinton broth is used for the enterobacteriaceae, staphylococci and enterococci. Streptococci are also tested in Mueller-Hinton broth supplemented with 5% horse blood (LHB). Test organisms include recent clinical isolates that are resistant to methicillin, penicillin and/or vancomycin. […].

enterococci = assay: Minimum inhibitory concentration, microdilution broth method, enterococci; format: cell-based; settings: Mueller-Hinton broth, 18-22 hours at 35° C.; for MIC: Enterococcus faecalis
Method: as §2, §3

Streptococci = assay: Minimum inhibitory concentration, microdilution broth method, streptococci; format: cell-based; settings: Mueller-Hinton broth with 5% horse blood, 18-22 hours at 35° C.; for MIC: S. pneumo GC 1894
Method: as §2, §3

[2] = biological target: E. coli Uridine-diphosphate-N-acetvimuramoyl: L-alanine lipase, MurC (Escherichia coli, UniProt P17952); assay: Inhibitory activity against MurC (E. coli); format: biochemical; settings: (E) E. coli enzyme; for IC50: read-out: MurC IC50 (converted)
Method: S. aureus and E. coli Uridine-diphosphate-N-acetvimuramoyl: L-alanine lipase, MurC
The buffer is prepared from aqueous reagents with the following final concentrations: 83 mM Tris/HCl (pH 8.0), 50 mM MgC12, and 2 mM ATP.
as §1
A 1 mg/mL stock solution of MurC is prepared in a buffer consisting of 20 mM Tris/HCl (pH 8.5) with 2.5 μM BME. The stock solution is further diluted with the buffer to give a final enzyme concentration of 100 μg/mL for the E. coli stock solution and 70 μg/mL for the S. aureus stock solution.
(§4) Preparation of Test Compound Solutions:
(§5) All test solutions are prepared in DMSO as 10 mg/mL, then diluted with 50 mM Tris/HCl (pH 8.5) to 100 μg/mL.
(§6) Preparation of Stop Solution:
The stop solution is prepared by stirring 1 part 4.2% ammonium molydbate in 4N HCl with 2 parts 0.045% malachite green for 30 min.
In this evaluation, the inhibitory activity of a test compound against MurC, the enzyme which catalyzes the third step of bacterial cell wall bioxynthesis is determined. Experiments are performed by adding 2.5 μl buffer, 2.5 μl 0.5M NH4SO2, 5 μl 2 μM L-Ala, 5 μl enzyme solution and 6.5 μl test compound solution to each well in a 96-well microplate. After a pre-incubation period of 10 mins. at 23° C., 3.75 μl of a 0.75 μM solution of UDP-MurNac is added to each well. Following an incubation period of 10 mins. at 37° C., 210 μl stop solution and 50 μl of a 34% w/v sodium citrate solution are added and color is allowed to develop for 10 mins. at 23° C. (Lanzetta et al., Analytical Biochemistry, 1979, 95) Optical density readings are taken at 660 nm using a Molecular Devices Spectra Max 250 with Soft Max software. Controls are performed using the same procedure and omitting the addition of UDP-MurNac.
Using these values the IC50 is determined by linear regression analysis.

[3] = biological target: T1, S. aureus Uridine-diphosphate-N-acetylmuramoyl-L-alanine: D-glutamate liease, MurD (Staphylococcus aureus, UniProt Q2FZ92); assay: biochemical; settings: (S) S. aureus enzyme
T1 sequence (Q2FZ92 1-449): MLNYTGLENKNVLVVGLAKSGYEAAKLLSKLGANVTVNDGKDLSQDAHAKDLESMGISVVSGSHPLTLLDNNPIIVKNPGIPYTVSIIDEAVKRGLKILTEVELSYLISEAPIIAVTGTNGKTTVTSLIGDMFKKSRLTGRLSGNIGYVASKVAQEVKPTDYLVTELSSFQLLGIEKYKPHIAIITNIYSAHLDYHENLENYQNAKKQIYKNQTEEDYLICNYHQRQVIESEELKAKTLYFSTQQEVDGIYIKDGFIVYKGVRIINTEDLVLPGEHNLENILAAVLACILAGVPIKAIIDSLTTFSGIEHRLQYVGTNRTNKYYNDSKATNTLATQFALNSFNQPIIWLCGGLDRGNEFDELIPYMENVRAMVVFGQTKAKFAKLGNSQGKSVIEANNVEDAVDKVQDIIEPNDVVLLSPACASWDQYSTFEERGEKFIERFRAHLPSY
Method: (§7) S. aureus and E. coli Uridine-diphosphate-N-acetylmuramoyl-L-alanine: D-glutamate liease, MurD
as §1, §4, §5, §6
(§8) In this evaluation, the inhibitory activity of a test compound against MurD, the enzyme which catalyzes the fourth step of bacterial cell wall biosynthesis is determined.

[4] = biological target: E. coli Uridine-diphosphate-N-acetylmuramoyl-L-alanine: D-glutamate liease, MurD (Escherichia coli, UniProt P14900); assay: biochemical; settings: (E) E. coli enzyme
Method: as §7
The buffer is prepared from aqueous reagents with the following final concentrations: 83 mM Tris/HCl (pH 8.0), 50 mM MgCl2, and 2 mM ATP.
as §1, §4, §5, §6, §8

C. elegans = assay: Efficacy against nematodes (C. elegans motility rating); design: key: 0: no effect; 7: reduced movement in 24 h; 8: dead in 24 h; 9: dead in 4 h; settings: dose 150 ppm, observations at 4 h and 24 h postimmersion
Outline: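 Mixed-stage C. elegans (~50 per well, L1 to adult) in M9 buffer exposed to test compound at 100 ppm, 150 ppm or 200 μM final. Motility of larvae and adults scored under dissecting microscope at 4 h and 24 h.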

[5] = tested on: Trichostrongylus columbriformis; assay: In vivo efficacy against T. colubriformis in infected gerbils; settings: gerbils infected with T. colubriformis, single oral dose of 50 mg/kg by gavage, worm counts four days post-treatment, % mortality as compared to negative control
Method: In Vivo Evaluation of the Efficacy of Test Compounds Against T. colubriformis
In this evaluation, gerbils are infected with Trichostrongylus columbriformis infective larvae at a concentration of approximately 800 L3/mL. Larvae for gerbil infections are cultured from feces from sheep previously infected with T. colubriformis. One week post infection, test compounds are administered by gavage as a single oral dose of 50 mg/kg of body weight. For each group of 3 gerbils, 10 mg of test compound are dissolved in 2 mL of PEG 400:DMSO (1:2 v/v) and each animal is administered the test solution at a rate of 0.1 mL/10 g of body weight. […] All animals are observed daily for morbidity and mortality. Four days post-treatment, all animals are weighed and necropsied. Worm counts are conducted with the use of stereoscopes and counters.

[6] = S. aureus GC 1131, read-out: MIC S. aureus GC 1131
[7] = S. aureus GC 4543, read-out: MIC S. aureus GC 4543
[8] = E. faecalis GC 2242, read-out: MIC E. faecalis GC 2242
[9] = E. faecalis GC 4555, read-out: MIC E. faecalis GC 4555

Sequence of E. coli Uridine-diphosphate-N-acetvimuramoyl: L-alanine lipase, MurC (P17952 whole entry): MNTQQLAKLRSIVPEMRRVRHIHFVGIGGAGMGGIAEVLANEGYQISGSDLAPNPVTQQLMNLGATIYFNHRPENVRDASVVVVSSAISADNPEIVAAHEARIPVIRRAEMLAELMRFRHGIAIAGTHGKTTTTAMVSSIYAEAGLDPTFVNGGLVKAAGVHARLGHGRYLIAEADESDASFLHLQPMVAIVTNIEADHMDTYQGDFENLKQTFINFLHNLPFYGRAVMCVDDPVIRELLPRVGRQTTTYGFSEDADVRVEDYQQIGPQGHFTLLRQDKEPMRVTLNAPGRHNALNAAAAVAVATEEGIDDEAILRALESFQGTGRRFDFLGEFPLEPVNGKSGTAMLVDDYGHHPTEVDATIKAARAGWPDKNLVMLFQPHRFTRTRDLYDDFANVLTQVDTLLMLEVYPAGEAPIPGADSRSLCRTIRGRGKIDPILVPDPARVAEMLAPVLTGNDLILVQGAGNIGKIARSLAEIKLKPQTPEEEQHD
Sequence of E. coli Enopyruvyl-UPD-N-acetylglucosamine reductase, Mur B (P08373 whole entry): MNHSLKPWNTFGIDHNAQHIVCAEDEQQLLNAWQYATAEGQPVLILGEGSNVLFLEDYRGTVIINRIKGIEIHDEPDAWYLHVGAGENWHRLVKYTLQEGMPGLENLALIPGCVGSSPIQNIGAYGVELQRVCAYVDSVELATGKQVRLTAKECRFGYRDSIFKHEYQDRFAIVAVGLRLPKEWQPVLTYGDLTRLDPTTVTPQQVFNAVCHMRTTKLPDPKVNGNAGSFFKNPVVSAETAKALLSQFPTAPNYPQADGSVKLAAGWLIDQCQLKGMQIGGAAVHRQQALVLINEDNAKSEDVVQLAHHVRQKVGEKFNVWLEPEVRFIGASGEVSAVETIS
Sequence of E. coli Uridine-diphosphate-N-acetylmuramoyl-L-alanine: D-glutamate liease, MurD (P14900 whole entry): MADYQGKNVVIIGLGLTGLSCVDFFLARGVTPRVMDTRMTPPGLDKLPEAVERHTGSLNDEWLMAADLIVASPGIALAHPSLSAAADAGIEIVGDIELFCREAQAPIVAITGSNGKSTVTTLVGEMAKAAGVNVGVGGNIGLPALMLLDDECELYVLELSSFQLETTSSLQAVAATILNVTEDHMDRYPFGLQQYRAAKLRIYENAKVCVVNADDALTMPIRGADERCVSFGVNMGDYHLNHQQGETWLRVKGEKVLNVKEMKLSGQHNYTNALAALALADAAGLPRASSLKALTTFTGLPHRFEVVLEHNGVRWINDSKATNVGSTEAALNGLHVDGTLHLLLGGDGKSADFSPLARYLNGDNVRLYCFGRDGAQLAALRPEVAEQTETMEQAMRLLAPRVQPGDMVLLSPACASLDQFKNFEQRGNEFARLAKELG

SMILES | MIC (staphylococci; [6]) [µg/mL] | MIC (staphylococci; [7]) [µg/mL] | MIC (enterococci; [8]) [µg/mL] | MIC (enterococci; [9]) [µg/mL] | MIC (Streptococci) [µg/mL] | Rating (C. elegans) | Mortality [5] [%] | further results
O=C1O/C(=C\c2ccc3ccccc3c2)C(O)=C1c1cccc(C(F)(F)F)c1 [Example 8] | 8 (≈ 20.9 µM) | 8 (≈ 20.9 µM) | 4 (≈ 10.5 µM) | 16 (≈ 41.8 µM) | 0.25 (≈ 0.654 µM) | – | – | MurB IC50 [1]: 11 (E) μg/mL; MurC IC50 [2]: 6 (E) μg/mL
O=C1O/C(=C\c2ccc(-c3ccccc3)cc2)C(O)=C1c1ccc2ccccc2c1 [Example 45] | 16 (≈ 41 µM) | 4 (≈ 10.2 µM) | 4 (≈ 10.2 µM) | 8 (≈ 20.5 µM) | 2 (≈ 5.12 µM) | – | – | IC50 [3]: > 64 µM; MurB IC50 [1]: 2 (E) μg/mL; MurC IC50 [2]: 10 (E) μg/mL
O=C1O/C(=C\c2cccc(C(F)(F)F)c2)C(O)=C1c1cccc2ccccc12 [Example 48] | 32 (≈ 83.7 µM) | 64 (≈ 167 µM) | 32 (≈ 83.7 µM) | > 128 | 8 (≈ 20.9 µM) | – | – | MurC IC50 [2]: 13 (E) μg/mL
O=C1O/C(=C\c2cc(F)cc(C(F)(F)F)c2)C(O)=C1c1cccc(-c2ccccc2)c1 [Example 109] | 2 (≈ 4.69 µM) | 2 (≈ 4.69 µM) | 1 (≈ 2.35 µM) | 4 (≈ 9.38 µM) | 0.25 (≈ 0.586 µM) | – | – | IC50 [1]: 9.38 µM; IC50 [4]: > 58.6 µM; IC50 [2]: 23.5 µM
O=C1O/C(=C\c2cc(F)cc(C(F)(F)F)c2)C(O)=C1c1cccc(-c2ccccc2)c1 [Example 112] | – | – | – | – | – | – | – | IC50 [1]: 11.7 µM; MIC S. aureus GC 1131 (staphylococci; S. aureus GC 1131): 2 µg/mL (≈ 4.69 µM); MIC S. aureus GC 4543 (staphylococci; S. aureus GC 4543): 4 µg/mL (≈ 9.38 µM); MIC E. faecalis GC 2242 (enterococci; E. faecalis GC 2242): 2 µg/mL (≈ 4.69 µM); MIC E. faecalis GC 4555 (enterococci; E. faecalis GC 4555): 8 µg/mL (≈ 18.8 µM); MIC S. pneumo GC 1894 (Streptococci): 0.25 µg/mL (≈ 0.586 µM); IC50 [4]: > 58.6 µM; IC50 [2]: 23.5 µM
O=C1O/C(=C\c2ccc(Cl)cc2)C(O)=C1c1ccc(-c2ccccc2)cc1 [Example 139] | 16 (≈ 42.7 µM) | 16 (≈ 42.7 µM) | 4 (≈ 10.7 µM) | 8 (≈ 21.3 µM) | 1 (≈ 2.67 µM) | – | – | IC50 [1]: 16 µM; MurC IC50 [2]: 16 (E) μg/mL
N#Cc1ccc(-c2ccc(/C=C3\OC(=O)C(c4ccc(Cl)cc4)=C3O)cc2)cc1 [R=H; R1=4-Cl—C6H4*; R2=4-(4′-CN-biphenyl)] | – | – | – | – | – | 9 | – | Mortality ([5]; 50 mg/kg): 23.80%
O=C1O/C(=C\c2cccc3ccccc23)C(O)=C1c1ccc(Cl)cc1 [R=H; R1=4-Cl—C6H4; R2=1-naphthyl] | – | – | – | – | – | 9 | 0.00 | –
O=C1OC(=Cc2ccc3ccccc3c2)C(O)=C1c1ccc(Cl)cc1 [R=H; R1=4-Cl—C6H4; R2=2-naphthyl] | – | – | – | – | – | 9 | 52.80 | –
COc1ccc(C=C2OC(=O)C(c3ccc(Cl)cc3)=C2O)cc1 [R=H; R1=4-Cl—C6H4; R2=4-OCH3—C6H4] | – | – | – | – | – | 0 | 7.10 | –
COc1ccc(C2=C(O)C(=Cc3ccc(-c4ccccc4)cc3)OC2=O)cc1 [R=H; R1=4-OCH3—C6H4; R2=4-biphenyl] | – | – | – | – | – | 9 | 44.90 | –
O=C1O/C(=C\c2ccccc2C(F)(F)F)C(O)=C1c1ccc(-c2ccccc2)cc1 [R=H; R1=4-biphenyl; R2=2-CF3—C6H4] | – | – | – | – | – | 9 | 23.90 | –
O=C1OC(=Cc2ccc(C(F)(F)F)cc2)C(O)=C1c1ccc(-c2ccccc2)cc1 [R=H; R1=4-biphenyl; R2=4-CF3—C6H4] | – | – | – | – | – | 9 | 0.00 | –
O=C1O/C(=C\c2ccc(Cl)cc2)C(O)=C1c1ccc(-c2ccccc2)cc1 [R=H; R1=4-biphenyl; R2=4-Cl—C6H4] | – | – | – | – | – | 9 | 44.70 | –
